Test [1] concerns the target PI3Kγ (p110γ) Recombinant Human Protein (Homo sapiens (Human), UniProt P48736). Description: PI3K-γ scintillation proximity assay. In kind it is biochemical. The settings on record: 2 μM ATP, 20 μM PIP2.
Test [2] concerns the target PI3Kδ (p110δ/p85α) Recombinant Human Protein (Homo sapiens (Human), UniProt O00329). Description: PI3Kδ scintillation proximity assay. It is filed as biochemical. As to conditions: 2 μM ATP, 20 μM PIP2.
In test [3] the test system is Phosphorylated Ribosomal Protein S6 (RPS6) in THP-1 cells. Description: THP-1 RPS6 ELISA assay. In kind it is cell-based, human. As to conditions: 10 nM MCP-1, read-out: PI3Kγ_THP1_RPS6_ELISA IC50.
Where [4] appears, read: Homo sapiens, THP-1, THP-1 cells.

Counter-ions that a name gives are not always drawn. Like-named read-outs stand apart in the source and are kept apart here.

Sequence of PI3Kδ (p110δ/p85α) Recombinant Human Protein (O00329 whole entry): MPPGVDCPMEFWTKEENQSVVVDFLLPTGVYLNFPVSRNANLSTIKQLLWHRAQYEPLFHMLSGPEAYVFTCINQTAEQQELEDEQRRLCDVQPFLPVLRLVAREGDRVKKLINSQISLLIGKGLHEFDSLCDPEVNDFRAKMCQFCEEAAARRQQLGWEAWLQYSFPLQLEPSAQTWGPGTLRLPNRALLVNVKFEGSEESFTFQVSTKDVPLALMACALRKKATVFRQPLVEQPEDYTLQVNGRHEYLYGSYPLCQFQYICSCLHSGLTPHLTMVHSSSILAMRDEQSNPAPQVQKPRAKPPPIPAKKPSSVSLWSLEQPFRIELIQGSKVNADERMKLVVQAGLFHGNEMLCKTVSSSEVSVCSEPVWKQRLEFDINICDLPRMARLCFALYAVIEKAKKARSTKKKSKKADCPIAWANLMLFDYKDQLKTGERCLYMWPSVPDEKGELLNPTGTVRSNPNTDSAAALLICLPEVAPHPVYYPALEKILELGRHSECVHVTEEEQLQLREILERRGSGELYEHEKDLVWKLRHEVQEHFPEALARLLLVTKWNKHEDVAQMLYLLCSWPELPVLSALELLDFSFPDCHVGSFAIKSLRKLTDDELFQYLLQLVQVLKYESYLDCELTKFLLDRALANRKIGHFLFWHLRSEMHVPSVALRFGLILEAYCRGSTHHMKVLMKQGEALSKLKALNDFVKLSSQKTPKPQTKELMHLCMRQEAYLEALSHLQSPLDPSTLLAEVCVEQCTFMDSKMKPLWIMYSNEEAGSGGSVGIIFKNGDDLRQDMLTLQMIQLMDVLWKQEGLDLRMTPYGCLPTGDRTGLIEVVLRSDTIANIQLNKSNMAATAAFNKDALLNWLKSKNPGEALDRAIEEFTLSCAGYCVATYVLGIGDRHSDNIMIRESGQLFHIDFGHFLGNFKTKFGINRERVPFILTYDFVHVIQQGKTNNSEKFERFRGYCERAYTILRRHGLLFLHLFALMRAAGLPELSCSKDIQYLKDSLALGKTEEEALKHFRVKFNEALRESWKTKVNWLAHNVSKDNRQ
Sequence of PI3Kδ (p110δ/p85α) Recombinant Human Protein (P27986 whole entry partner): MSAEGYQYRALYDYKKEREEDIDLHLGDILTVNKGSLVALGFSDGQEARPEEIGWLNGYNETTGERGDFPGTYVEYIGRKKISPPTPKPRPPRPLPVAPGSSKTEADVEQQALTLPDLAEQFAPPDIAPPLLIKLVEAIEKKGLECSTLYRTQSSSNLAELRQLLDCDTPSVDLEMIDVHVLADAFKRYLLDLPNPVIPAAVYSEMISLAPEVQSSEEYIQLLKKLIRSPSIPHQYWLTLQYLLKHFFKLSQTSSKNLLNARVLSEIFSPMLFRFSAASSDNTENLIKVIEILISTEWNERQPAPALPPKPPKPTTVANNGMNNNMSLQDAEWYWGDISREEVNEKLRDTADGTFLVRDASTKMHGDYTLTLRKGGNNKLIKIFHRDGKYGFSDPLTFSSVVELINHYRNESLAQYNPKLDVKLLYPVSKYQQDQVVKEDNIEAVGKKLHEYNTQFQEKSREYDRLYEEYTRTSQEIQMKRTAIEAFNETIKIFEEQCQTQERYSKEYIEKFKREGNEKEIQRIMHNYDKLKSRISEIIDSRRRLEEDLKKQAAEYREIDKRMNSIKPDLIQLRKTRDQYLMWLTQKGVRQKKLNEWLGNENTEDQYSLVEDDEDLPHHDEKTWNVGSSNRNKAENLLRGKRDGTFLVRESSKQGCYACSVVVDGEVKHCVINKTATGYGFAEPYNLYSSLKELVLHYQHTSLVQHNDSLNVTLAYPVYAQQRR
Sequence of PI3Kγ (p110γ) Recombinant Human Protein (P48736 whole entry): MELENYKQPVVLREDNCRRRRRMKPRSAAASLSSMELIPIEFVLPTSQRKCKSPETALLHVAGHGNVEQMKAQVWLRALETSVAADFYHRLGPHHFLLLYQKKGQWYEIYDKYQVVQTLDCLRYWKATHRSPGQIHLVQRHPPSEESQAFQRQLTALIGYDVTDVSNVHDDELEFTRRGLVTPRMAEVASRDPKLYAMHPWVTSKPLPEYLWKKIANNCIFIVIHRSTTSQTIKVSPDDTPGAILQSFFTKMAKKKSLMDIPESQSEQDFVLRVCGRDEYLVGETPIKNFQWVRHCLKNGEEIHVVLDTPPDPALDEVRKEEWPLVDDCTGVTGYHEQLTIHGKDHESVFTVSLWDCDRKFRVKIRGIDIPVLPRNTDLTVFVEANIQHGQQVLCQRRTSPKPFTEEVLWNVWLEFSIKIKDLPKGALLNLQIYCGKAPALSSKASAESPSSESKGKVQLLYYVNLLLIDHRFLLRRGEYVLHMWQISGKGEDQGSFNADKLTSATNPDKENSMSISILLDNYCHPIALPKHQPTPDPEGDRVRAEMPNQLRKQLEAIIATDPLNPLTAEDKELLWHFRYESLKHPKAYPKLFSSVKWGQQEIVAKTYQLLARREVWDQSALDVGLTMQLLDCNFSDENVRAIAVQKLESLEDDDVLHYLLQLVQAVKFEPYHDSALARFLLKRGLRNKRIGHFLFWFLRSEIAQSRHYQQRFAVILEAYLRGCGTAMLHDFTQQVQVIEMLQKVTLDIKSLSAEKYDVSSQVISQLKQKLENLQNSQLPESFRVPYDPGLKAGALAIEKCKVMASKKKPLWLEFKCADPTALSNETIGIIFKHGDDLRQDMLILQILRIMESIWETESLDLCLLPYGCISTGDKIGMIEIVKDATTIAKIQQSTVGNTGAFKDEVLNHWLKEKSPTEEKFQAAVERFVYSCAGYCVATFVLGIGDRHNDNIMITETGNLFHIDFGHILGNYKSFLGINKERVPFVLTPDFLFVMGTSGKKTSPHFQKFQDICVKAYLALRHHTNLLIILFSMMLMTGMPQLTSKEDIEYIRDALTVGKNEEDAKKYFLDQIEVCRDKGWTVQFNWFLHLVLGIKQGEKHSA

Take `CC(NC(=O)c1c(N)nn2cccnc12)c1cc(Cl)c2cncn2c1N1CCCS(=O)(=O)CC1` (racemic) [Example 151, 2-Amino-N-{1-[8-chloro-5-(1,1-dioxido-1,4-thiazepan-4-yl)imidazo[1,5-a]pyridin-6-yl]ethyl}pyrazolo[1,5-a]pyrimidine-3-carboxamide trifluoroacetate salt]: the IC50 in test [1] was less than 100 nM; in test [2], less than 100 nM; in test [3] (setting [4]) it was less than 500 nM.

For `CC(NC(=O)c1c(N)nn2cccnc12)c1cc(Cl)c2cncn2c1N1CCN(C)C(=O)C1` (racemic) [Example 154, 2-Amino-N-{1-[8-chloro-5-(4-methyl-3-oxopiperazin-1-yl)imidazo[1,5-a]pyridin-6-yl]ethyl}pyrazolo[1,5-a]pyrimidine-3-carboxamide trifluoroacetate salt], the figures for the IC50 in test [1], in test [2] and in test [3] (setting [4]) were less than 500 nM, less than 500 nM and less than 1000 nM, respectively.

With `CC(NC(=O)c1c(N)nn2cccnc12)c1cc(Cl)c2cncn2c1N1C[C@H](O)C[C@@H](O)C1` (mixture of isomers) [Example 155A, 2-Amino-N-(1-{8-chloro-5-[(3R,5R)-3,5-dihydroxypiperidin-1-yl]imidazo[1,5-a]pyridin-6-yl}ethyl)pyrazolo[1,5-a]pyrimidine-3-carboxamide trifluoroacetate salt], the IC50 in test [1] was less than 100 nM; in test [2], less than 500 nM; in test [3] (setting [4]), less than 500 nM.

Regarding `Cc1ncc2c(Cl)cc(C(C)NC(=O)c3c(N)nn4cccnc34)c(N3CCCS(=O)(=O)CC3)n12` (racemic) [Example 158, 2-Amino-N-(1-(8-chloro-5-(1,1-dioxido-1,4-thiazepan-4-yl)-3-methylimidazo[1,5-a]pyridin-6-yl)ethyl)pyrazolo[1,5-a]pyrimidine-3-carboxamide trifluoroacetate salt], the IC50 in test [1] was less than 100 nM; in test [2], less than 500 nM; in test [3] (setting [4]), less than 500 nM.

As to `CC(NC(=O)c1c(N)nn2cccnc12)c1cc(Cl)c2c(Cl)ncn2c1N1CCS(=O)(=O)CC1` (racemic) [Example 162, 2-Amino-N-{1-[1,8-dichloro-5-(1,1-dioxidothiomorpholin-4-yl)imidazo[1,5-a]pyridin-6-yl]ethyl}pyrazolo[1,5-a]pyrimidine-3-carboxamide trifluoroacetate salt], the IC50 in test [1] is less than 100 nM; in test [2] it was less than 500 nM; in test [3] (setting [4]), less than 500 nM.

On to `CC(NC(=O)c1c(N)nn2cccnc12)c1cc(Cl)c2c(Cl)ncn2c1N1CCC(C#N)CC1` (racemic) [Example 163, 2-Amino-N-{1-[1,8-dichloro-5-(4-cyanopiperidin-1-yl)imidazo[1,5-a]pyridin-6-yl]ethyl}pyrazolo[1,5-a]pyrimidine-3-carboxamide trifluoroacetate salt], for which the IC50 in test [1] is less than 100 nM; in test [2] it was less than 100 nM; in test [3] (setting [4]), less than 500 nM.

Regarding `CC(NC(=O)c1c(N)nn2cccnc12)c1cc(Cl)c2c(C#N)ncn2c1N1CCS(=O)(=O)CC1` (racemic) [Example 164, 2-Amino-N-{1-[8-chloro-1-cyano-5-(1,1-dioxidothiomorpholin-4-yl)imidazo[1,5-a]pyridin-6-yl]ethyl}pyrazolo[1,5-a]pyrimidine-3-carboxamide trifluoroacetate salt], the IC50 is less than 100 nM in test [1], less than 2000 nM in test [2] and greater than 1000 nM in test [3] (setting [4]).

Regarding `CC1CN(c2c(CNC(=O)c3c(N)nn4cccnc34)cc(Cl)c3cncn23)CCS1(=O)=O` (racemic) [Example 167, 2-Amino-N-((8-chloro-5-(2-methyl-1,1-dioxidothiomorpholino)imidazo[1,5-a]pyridin-6-yl)methyl)pyrazolo[1,5-a]pyrimidine-3-carboxamide trifluoroacetate salt], the results for the IC50 in test [1], in test [2] and in test [3] (setting [4]) were less than 100 nM, less than 500 nM and less than 500 nM, respectively.

Consider `CC1CN(c2c(CNC(=O)c3c(N)nn4cccnc34)cc(Cl)c3c(Cl)ncn23)CCS1(=O)=O` (racemic) [Example 169, 2-Amino-N-((1,8-dichloro-5-(2-methyl-1,1-dioxidothiomorpholino)imidazo[1,5-a]pyridin-6-yl)methyl)pyrazolo[1,5-a]pyrimidine-3-carboxamide trifluoroacetate salt], for which the IC50 in test [1] is less than 100 nM; in test [2], less than 500 nM; in test [3] (setting [4]) it was less than 500 nM.

On to `Nc1nn2cccnc2c1C(=O)NC(c1cc(Cl)c2cncn2c1N1CCS(=O)(=O)CC1)C(F)(F)F` (racemic) [Example 180, 2-Amino-N-{1-[8-chloro-5-(1,1-dioxidothiomorpholin-4-yl)imidazo[1,5-a]pyridin-6-yl]-2,2,2-trifluoroethyl}pyrazolo[1,5-a]pyrimidine-3-carboxamide trifluoroacetate salt], for which the values for the IC50 in test [1], in test [2] and in test [3] (setting [4]) were less than 100 nM, less than 100 nM and less than 500 nM, respectively.

As for `CC(C)C(NC(=O)c1c(N)nn2cccnc12)c1cc(Cl)c2cncn2c1N1CCS(=O)(=O)CC1` (racemic) [Example 181, 2-Amino-N-(1-(8-chloro-5-(1,1-dioxidothiomorpholino)imidazo[1,5-a]pyridin-6-yl)-2-methylpropyl)pyrazolo[1,5-a]pyrimidine-3-carboxamide trifluoroacetate salt], the IC50 is less than 100 nM in test [1], less than 100 nM in test [2] and less than 500 nM in test [3] (setting [4]).

As for `Nc1nn2cccnc2c1C(=O)NC(c1cc(Cl)c2cncn2c1N1CCS(=O)(=O)CC1)C1CC1` (racemic) [Example 182, 2-Amino-N-((8-chloro-5-(1,1-dioxidothio-morpholino)imidazo [1,5-a]pyridin-6-yl)(cyclopropyl)methyl)pyrazolo [1,5-a] pyrimidine-3-carboxamide trifluoroacetate salt], the IC50 in test [1] is less than 100 nM; in test [2], less than 100 nM; in test [3] (setting [4]) it was less than 500 nM.

For `CCOc1c(C(C)NC(=O)c2c(N)nn3cccnc23)cc(Cl)c2cn[nH]c12` (single isomer, unassigned) [Example 3a, 2-amino-N-[1-(4-chloro-7-ethoxy-1H-indazol-6-yl)ethyl]pyrazolo[1,5-a]pyrimidine-3-carboxamide trifluoroacetate], the IC50 was less than 100 nM in test [1], less than 100 nM in test [2] and less than 500 nM in test [3] (setting [4]).

On to `CC(NC(=O)c1c(N)nn2cccnc12)c1cc(Cl)c2cncn2c1N1CCS(=O)(=O)CC1` (single isomer, unassigned) [Example 36A, 2-Amino-N-(1-[8-chloro-5-(1,1-dioxidothiomorpholin-4-yl)imidazo[1,5-a]pyridin-6-yl]ethyl)pyrazolo[1,5-a]pyrimidine-3-carboxamide], for which the IC50 in test [1] was less than 100 nM; in test [2], less than 100 nM; in test [3] (setting [4]), less than 500 nM.

Take `CC(NC(=O)c1c(N)nn2cccnc12)c1cc(Cl)c2cncn2c1N1CCS(=O)(=O)CC1C` (single isomer, unassigned) [Example 38A, 2-Amino-N-(1-[8-chloro-5-(3-methyl-1,1-dioxidothiomorpholin-4-yl)imidazo[1,5-a]pyridin-6-yl]ethyl)pyrazolo[1,5-a]pyrimidine-3-carboxamide trifluoroacetate salt]: the IC50 in test [1] was less than 100 nM; in test [2] it was less than 100 nM; in test [3] (setting [4]), less than 500 nM.

On to `CC(NC(=O)c1c(N)nn2cccnc12)c1cc(Cl)c2cncn2c1N1CCCC(F)C1` (single isomer, unassigned) [Example 73A, 2-Amino-N-{1-[8-chloro-5-(3-fluoropiperidin-1-yl)imidazo[1,5-a]pyridin-6-yl]ethyl}pyrazolo[1,5-a]pyrimidine-3-carboxamide], for which the IC50 in test [1] is less than 100 nM; in test [2] it was less than 100 nM; in test [3] (setting [4]), less than 500 nM.

Take `CC(NC(=O)c1c(N)nn2cccnc12)c1cc(Cl)c2cncn2c1N1CCCC(F)C1` (single isomer, unassigned) [Example 73B, 2-Amino-N-{1-[8-chloro-5-(3-fluoropiperidin-1-yl)imidazo[1,5-a]pyridin-6-yl]ethyl}pyrazolo[1,5-a]pyrimidine-3-carboxamide]: the results for the IC50 in test [1], in test [2] and in test [3] (THP-1 cells) were less than 100 nM, less than 100 nM and less than 500 nM, respectively.

Take `CC(NC(=O)c1c(N)nn2cccnc12)c1cc(Cl)c2cncn2c1N1CCCC(C)(O)C1` (single isomer, unassigned) [Example 76A, 2-Amino-N-{1-[8-chloro-5-(3-hydroxy-3-methylpiperidin-1-yl)imidazo[1,5-a]pyridin-6-yl]ethyl}pyrazolo[1,5-a]pyrimidine-3-carboxamide trifluoroacetate]: the IC50 is less than 100 nM in test [1], less than 100 nM in test [2] and less than 500 nM in test [3] (setting [4]).

Turning to `CC(NC(=O)c1c(N)nn2cccnc12)c1cc(Cl)c2cncn2c1N1CCCC(C)(O)C1` (single isomer, unassigned) [Example 76B, 2-Amino-N-{1-[8-chloro-5-(3-hydroxy-3-methylpiperidin-1-yl)imidazo[1,5-a]pyridin-6-yl]ethyl}pyrazolo[1,5-a]pyrimidine-3-carboxamide trifluoroacetate], the IC50 was less than 100 nM in test [1], less than 500 nM in test [2] and less than 500 nM in test [3] (THP-1 cells).

Consider `CC(NC(=O)c1c(N)nn2cccnc12)c1cc(Cl)c2cncn2c1N1CCCC(C)(C#N)C1` (single isomer, unassigned) [Example 77A, 2-Amino-N-{1-[8-chloro-5-(3-cyano-3-methylpiperidin-1-yl)imidazo[1,5-a]pyridin-6-yl]ethyl}pyrazolo[1,5-a]pyrimidine-3-carboxamide trifluroacetate], for which the values for the IC50 in test [1], in test [2] and in test [3] (setting [4]) were less than 100 nM, less than 500 nM and less than 500 nM, respectively.
